Results as given in the supplement of paper PMC10307832.

Tests used:
Assay in all cases: relative viability (nuclei count vs DMSO), 5 days (fraction); higher = more cells survive
[1] = compound: CC1=C(C=C(C=C1)NC(=O)C2=CC(=CC=C2)C(C)(C)C#N)NC3=CC4=C(C=C3)N=CN(C4=O)C [AZ628] + C[C@@H](Oc1cc(-c2cnn(C3CCNCC3)c2)cnc1N)c1c(Cl)ccc(F)c1Cl [Crizotinib] (partner 1 µM)
How it was run: (§1)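 Relative viability was taken as the ratio of nuclei in treated wells to nuclei in vehicle wells. Lung cancer cell lines in 1536-well plates received compounds by pin tool one day after seeding, either one drug alone or a fixed anchor-drug dose plus five library-drug doses (not always all listed) in √10 steps. Nuclei were counted on 4× images after 5 days of treatment, and values are medians of duplicate plates.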

[2] = compound: CC1=C(C=C(C=C1)NC(=O)C2=CC(=CC=C2)C(C)(C)C#N)NC3=CC4=C(C=C3)N=CN(C4=O)C [AZ628] + Cc1nc(Nc2ncc(C(=O)Nc3c(C)cccc3Cl)s2)cc(N2CCN(CCO)CC2)n1 [Dasatinib] (partner 0.075 µM)
How it was run: as §1

[3] = compound: C1CC2=C(C1)C=C(C=C2)OC3=NC(=C4C(=N3)N(C=N4)CC5=CC=C(C=C5)C6=CC=CC=C6)N[C@@H](CC7=CC=CC=C7)CO [QS11] + CC(C)C[C@H](NC(=O)[C@H](Cc1ccccc1)NC(=O)c1cnccn1)B(O)O [Bortezomib] (partner 0.002 µM)
How it was run: as §1

[4] = compound: CC1=C(C=C(C=C1)NC(=O)C2=CC(=CC=C2)C(C)(C)C#N)NC3=CC4=C(C=C3)N=CN(C4=O)C [AZ628] + CC(C)C[C@H](NC(=O)[C@H](Cc1ccccc1)NC(=O)c1cnccn1)B(O)O [Bortezomib] (partner 0.002 µM)
How it was run: as §1

| Cell Line | relative viability ([1]; first compound 0.08 µM) | relative viability ([1]; first compound 0.253 µM) | relative viability ([1]; first compound 0.8 µM) | relative viability ([1]; first compound 2.53 µM) | relative viability ([1]; first compound 8 µM) | relative viability ([2]; first compound 0.08 µM) | relative viability ([2]; first compound 0.253 µM) | relative viability ([2]; first compound 0.8 µM) | relative viability ([2]; first compound 2.53 µM) | relative viability ([2]; first compound 8 µM) | relative viability ([3]; first compound 0.08 µM) | relative viability ([3]; first compound 0.253 µM) | relative viability ([3]; first compound 0.8 µM) | relative viability ([3]; first compound 2.53 µM) | relative viability ([3]; first compound 8 µM) | relative viability ([4]; first compound 0.08 µM) | relative viability ([4]; first compound 0.253 µM) | relative viability ([4]; first compound 0.8 µM) | relative viability ([4]; first compound 2.53 µM) | relative viability ([4]; first compound 8 µM) |
| --- | --- | --- | --- | --- | --- | --- | --- | --- | --- | --- | --- | --- | --- | --- | --- | --- | --- | --- | --- | --- |
| PC-14 | 0.909 | 0.839 | 1.04 | 0.976 | 0.726 | 0.274 | 0.289 | 0.315 | 0.262 | 0.146 | 0.7 | 0.887 | 0.979 | 0.741 | 0.731 | 0.815 | 0.746 | 0.942 | 1.08 | 0.604 |
| EPLC-272H | 0.904 | 0.957 | 0.848 | 0.851 | 0.813 | 0.317 | 0.345 | 0.398 | 0.357 | 0.231 | 0.954 | 0.947 | 0.81 | 0.946 | 0.798 | 0.87 | 0.803 | 0.797 | 0.525 | 0.877 |
| NCI-H2228 | 0.372 | 0.486 | 0.5 | 0.41 | 0.531 | 0.479 | 0.531 | 0.47 | 0.432 | 0.396 | 0.974 | 1.04 | 1.15 | 1.26 | 1.12 | 0.936 | 1.03 | 0.909 | 0.963 | 0.929 |
| LC-2-ad | 0.503 | 0.457 | 0.448 | 0.44 | 0.505 | 0.713 | 0.419 | 0.396 | 0.365 | 0.149 | 0.987 | 1.03 | 0.651 | 0.962 | 1.1 | 1.06 | 0.926 | 0.972 | 0.972 | 0.751 |
| HOP-62 | 1.06 | 0.834 | 0.926 | 1.16 | 0.412 | 0.501 | 0.608 | 0.477 | 0.478 | 0.317 | 0.718 | 1.01 | 0.728 | 0.594 | 0.652 | 0.814 | 0.832 | 1.12 | 0.975 | 0.805 |
| UMC-11 | 0.578 | 0.572 | 0.684 | 0.542 | 0.781 | 0.659 | 0.448 | 0.474 | 0.5 | 0.47 | 0.668 | 0.851 | 0.816 | 1.01 | 0.68 | 0.935 | 0.571 | 0.694 | 0.739 | 0.666 |
| Calu-6 | 0.753 | 0.678 | 0.605 | 0.577 | 0.153 | – | – | – | – | – | 1.12 | 1.07 | 0.953 | 1.06 | 0.817 | 1.03 | 0.943 | 0.61 | 0.792 | 0.244 |
| HCC-44 | 0.801 | 0.857 | 0.961 | 0.912 | 0.721 | – | – | – | – | – | 0.885 | 0.76 | 0.681 | 0.766 | 0.697 | 0.904 | 0.915 | 1.09 | 1.01 | 0.758 |
| NCI-H727 | 0.706 | 0.523 | 0.452 | 0.368 | 0.258 | 0.318 | 0.3 | 0.306 | 0.23 | 0.264 | 0.804 | 0.72 | 0.893 | 0.739 | 0.35 | 0.604 | 0.487 | 0.389 | 0.42 | 0.295 |
| A-427 | 0.641 | 0.74 | 0.69 | 0.665 | 0.251 | 0.594 | 0.472 | 0.301 | 0.314 | 0.153 | 0.852 | 0.96 | – | 0.999 | 0.858 | 0.884 | 0.993 | 1.1 | 0.94 | 0.452 |
| SK-MES-1 | 0.953 | 0.93 | 1.08 | 1.15 | 0.882 | 0.347 | 0.342 | 0.287 | 0.338 | 0.218 | – | – | – | – | – | – | – | – | – | – |
| NCI-H1623 | – | – | – | – | – | 0.554 | 0.447 | 0.301 | 0.493 | 0.374 | – | – | – | – | – | – | – | – | – | – |
| HCC-827 | 0.883 | 0.946 | 0.928 | 0.921 | 0.865 | 0.364 | 0.295 | 0.296 | 0.25 | 0.18 | 1.06 | 1.09 | 0.937 | 0.962 | 1.04 | 1.04 | 1.03 | 1.03 | 1.01 | 1.07 |
| EKVX | 1.16 | 0.913 | 1 | 0.975 | 0.751 | 0.537 | 0.541 | 0.422 | 0.346 | 0.334 | 0.941 | 1.09 | – | 1.07 | 1.1 | 1.17 | 1.11 | 1.21 | 1.09 | 0.603 |
| SW 900 | – | – | – | – | – | 1.1 | 0.466 | 0.59 | 0.528 | 0.547 | – | – | – | – | – | – | – | – | – | – |
| NCI-H661 | 0.975 | – | – | 1.1 | 1.01 | 0.87 | 0.644 | 0.629 | 0.666 | 0.659 | 0.718 | 0.685 | 0.685 | 0.912 | 0.919 | 0.823 | 0.805 | 0.684 | 0.699 | 0.562 |
| NCI-H1975 | 0.957 | 1.02 | 0.896 | 0.927 | 0.627 | 0.351 | 0.292 | 0.283 | 0.248 | 0.174 | 0.333 | 0.403 | 0.541 | 0.364 | 0.3 | 0.409 | 0.343 | 0.303 | 0.281 | 0.241 |
| NCI-H1944 | 1.2 | 1.09 | 0.97 | 0.973 | 0.878 | 0.209 | 0.211 | 0.208 | 0.192 | 0.197 | – | – | – | – | – | – | – | – | – | – |
| SK-LU-1 | 0.699 | 0.874 | 0.778 | 0.792 | 0.885 | – | 0.179 | 0.231 | 0.208 | 0.22 | 1.03 | 1.11 | 1.09 | 1.16 | 1.29 | 1.1 | 1.05 | 1.17 | 0.854 | 1.04 |
